From the OPERA property sets (Mansouri et al. 2018)

logP	Compound
4.5	Cc1cccc(C(C)C)c1
4.58	CCc1ccc(CC)cc1
4.5	CCCc1ccccc1C
4.5	CCc1ccc(C)c(C)c1
4.55	CCc1cc(C)cc(C)c1
4.57	CCc1cccc(CC)c1
4.6	CCCc1ccc(C)cc1

The remaining lines, values behind:

Compound	logP
Cc1ccccc1C(C)C	4.38
CCCCCCCCCc1ccccc1	7.11
CCc1ccc(C)cc1C	4.47
CCc1cc(C)ccc1C	4.43
CCCc1cccc(C)c1	4.67
CCc1c(C)cccc1C	4.28
CCc1cccc(C)c1C	4.34
CCc1cccc(C)c1	3.98
CCC(C)c1ccccc1 (stereo unspecified)	4.57
